What follows are compounds tested on Human immunodeficiency virus 1 (assay: Antiviral activity against recombinant HIV1 YU2 in Cf2Th-CCR5 cells assessed as viral infectivity by luciferase assasy relative to JRC-II-191; also: test concentration or dose not given here).
Type: functional, isolate YU2

Compound	fold change (FC)
NC(=O)C1CCN(CCC(=O)Nc2ccc(Br)cc2)CC1	0
CC1(C)CC(=O)c2cc(C(=O)Nc3ccc(Cl)cc3)c(=O)[nH]c2C1	0
CCN=C(S)N1CCN(CC(=O)Nc2ccc(Br)cc2)CC1	0
Nc1ccc(C(=O)CC(=O)Nc2ccc(Cl)cc2)cc1	0
N=c1oc2cc(O)ccc2cc1C(=O)Nc1ccc(Cl)cc1	0
O=C(CN1CCCCCC1)Nc1ccc(Br)cc1	0
CC1CCCN(CCC(=O)Nc2ccc(Br)cc2)C1 (stereo not drawn)	0
Cc1ccc(N(C)C)cc1NC(=O)COc1ccc(Cl)cc1	0
CC1(C)Cc2c(sc(NC(=O)C(=O)Nc3ccc(Cl)c(F)c3)c2C#N)C(C)(C)N1	0
Nc1ncc(CNC(=O)C(=O)Nc2ccc(Cl)c(F)c2)cn1	0
CNS(=O)(=O)Cc1ccc(CNC(=O)C(=O)Nc2ccc(Cl)c(F)c2)cc1	0
CC(NC(=O)C(=O)Nc1ccc(Cl)c(F)c1)c1ccc(S(N)(=O)=O)cc1 (stereo not drawn)	0
CCN(CC)C(CNC(=O)C(=O)Nc1ccc(Cl)c(F)c1)CC(C)C (stereo not drawn)	0
CN(C)C(CNC(=O)C(=O)Nc1ccc(Cl)c(F)c1)c1ccco1 (stereo not drawn)	0
CN(C)C(CNC(=O)C(=O)Nc1ccc(Cl)c(F)c1)N1CCCC1 (stereo not drawn)	0
O=C(NCC(c1ccco1)N1CCCC1)C(=O)Nc1ccc(Cl)c(F)c1 (stereo not drawn)	0
O=C(NCC(c1ccc(Cl)cc1)N1CCCC1)C(=O)Nc1ccc(Cl)c(F)c1 (stereo not drawn)	0.4
CN1CCN(C(CNC(=O)C(=O)Nc2ccc(Cl)c(F)c2)c2cccs2)CC1 (stereo not drawn)	0
CN1CCN(C(CNC(=O)C(=O)Nc2ccc(Cl)c(F)c2)c2ccccc2Cl)CC1 (stereo not drawn)	0.11
CC(NC(=O)C(=O)Nc1ccc(Cl)c(F)c1)C(c1ccccc1Cl)N1CCOCC1 (stereo not drawn)	0
O=C(NCc1ccccc1CN1CCOCC1)C(=O)Nc1ccc(Cl)c(F)c1	0.5
COc1cc(NC(=O)C(=O)NC2CC(C)(C)NC(C)(C)C2)ccc1Cl	0
CC(C)Oc1cc(NC(=O)C(=O)NC2CC(C)(C)NC(C)(C)C2)ccc1Cl	0
CC1(C)CC(NC(=O)C(=O)Nc2ccc(Cl)c(OCc3ccccc3)c2)CC(C)(C)N1	0
CC1(C)CC(NC(=O)C(=O)Nc2cccc(OCc3ccccc3)c2)CC(C)(C)N1	0
CC(C)COc1cc(Cl)ccc1NC(=O)C(=O)NC1CC(C)(C)NC(C)(C)C1	0

Compound	fold change (FC)
CC1(C)CC(NC(=O)C(=O)Nc2ccc(N=[N+]=[N-])cc2)CC(C)(C)N1	0
CC(C)c1ccccc1NC(=O)C(=O)NC1CC(C)(C)NC(C)(C)C1	0
CC(C)c1cccc(NC(=O)C(=O)NC2CC(C)(C)NC(C)(C)C2)c1	0
CC1(C)CC(NC(=O)C(=O)Nc2c[nH]c3ncccc23)CC(C)(C)N1	0
CC1(C)CC(NC(=O)C(=O)Nc2ccc3ccccc3c2)CC(C)(C)N1	0
CC1(C)CC(NC(=O)C(=O)Nc2ccc(-n3cc(CCc4ccccc4)nn3)cc2)CC(C)(C)N1	0
CC1(C)CC(NC(=O)C(=O)Nc2ccc(-n3cc(-c4ccccc4)nn3)cc2)CC(C)(C)N1	0
CC1(C)CC(NC(=O)C(=O)Nc2ccc(-n3cc(CCCCCO)nn3)cc2)CC(C)(C)N1	0
O=C(COc1ccc(Cl)cc1)Nc1cc(=O)[nH]c(=O)[nH]1	0
Cc1cc(SCC(=O)Nc2ccc(Cl)cc2)nc(=O)[nH]1	0
O=C(Nc1ccc(Cl)cc1)c1cc2c([nH]c1=O)CCCC2	0
O=C(Nc1ccc(Cl)cc1)Nc1ncnc2[nH]cnc12	0
O=C(Nc1cc[nH]c(=O)n1)c1sc2cc(Cl)ccc2c1Cl	0
O=C(Nc1ccc2c(c1)C(=O)NC2=O)c1ccc(Cl)c(Cl)c1	0
C[C@@H](Sc1nc(=O)cc(N)[nH]1)C(=O)Nc1ccc(Cl)cc1	0
O=C(COc1ccc(Cl)cc1)Nc1ccc2[nH]c(=O)[nH]c2c1	0
O=C(CSc1nc(=O)[nH]c2c1CCCC2)Nc1ccc(Cl)cc1	0
CN1CCC(NC(=O)Nc2ccc(Cl)cc2Cl)CC1	0
CN1CCCN(C(=O)COc2ccc(Cl)cc2)CC1	0
Cc1cccc(-c2cc(C(=O)Nc3ccc(Cl)cc3)n[nH]2)c1O	0
O=C(Nc1ccc(Cl)cc1)c1cc(-n2cnnc2)[nH]n1	0
CC1(C)OC(=O)N(CCC(=O)Nc2ccc(Cl)cc2)[C@@]1(C)O	0
Cc1cc(OCC(=O)NCc2nc[nH]n2)ccc1Cl	0
O=C(NCCc1cnc[nH]1)Nc1ccc(Cl)c(Cl)c1	0
CC1(C)NC(=O)N(C[C@H](O)COc2ccc(Cl)cc2)C1=O	0
O=C(COC(=O)c1n[nH]c2ccccc12)Nc1ccc(Cl)cn1	0

Compound	fold change (FC)
C[C@H](Sc1nc(N)cc(N)n1)C(=O)Nc1ccc(Cl)cc1	0
CC1(C)CC(NC(=O)C(=O)Nc2ccc3cc[nH]c3c2)CC(C)(C)N1	0
CC1Sc2cc(C(=O)NC3CC(C)(C)NC(C)(C)C3)ccc2NC1=O (stereo not drawn)	0
CC1(C)CC(=NNC(=O)c2n[nH]c3c2CCCC3)CC(C)(C)N1	0
O=C(NCc1ccco1)C(=O)Nc1ccc(Br)cc1	0
CC1(C)CC(NC(=O)C(=O)NCCc2ccc(Cl)cc2)CC(C)(C)N1	0
O=C(Nc1ccc(Br)cc1)c1cc(CN2CCCC2)on1	0
O=C(NCC1COc2ccccc2O1)C(=O)Nc1ccc(Br)cc1 (stereo not drawn)	0
Cc1nn(C)cc1CN(C)CC(=O)Nc1ccc(Br)cc1	0
COc1cccc(N[C@@H](C)C(=O)Nc2ccc(Br)cc2)c1	0
O=C(NCc1ccc2c(c1)OCO2)C(=O)Nc1ccc(Br)cc1	0
COc1cccc(NC(=O)C(=O)Nc2ccc(Cl)cc2)c1	0
O=C(CSCc1cc(O)[nH]n1)Nc1ccc(Br)cc1	0
CCN1CCCC1CNC(=O)C(=O)Nc1c(C(=O)OC)sc(C)c1C (stereo not drawn)	0
O=C(Nc1ccc(Br)cc1)C(=O)Nc1cccc2ccccc12	0
O=C(NCC1OCCc2ccccc21)C(=O)Nc1ccc(Br)cc1 (stereo not drawn)	0
CC(CC(=O)Nc1ccc(Br)cc1)Nc1cccc(CO)c1 (stereo not drawn)	0
COc1cccc(CNC(=O)C(=O)Nc2ccc(Cl)cc2)c1	0
O=C(NC[C@@H]1COC2(CCCC2)O1)C(=O)Nc1ccc(Cl)cc1	0
CC(C)C1CCN(CCC(=O)Nc2ccc(Br)cc2)CC1	0
Cc1cc(NC(=O)C(=O)c2c[nH]c3ccccc23)ccc1Br	0
C[C@@H]1CN(CCC(=O)Nc2ccc(Br)cc2)C[C@H](C)O1	0
CCOC(=O)[C@H]1CCCN(CCC(=O)Nc2ccc(Br)cc2)C1	0
C[C@H]1CCCN(CCC(=O)Nc2ccc(Cl)cc2)C1	0
Cc1ccc(C(C)C)c(OCC(=O)NNC(=O)Nc2ccc(Cl)cc2)c1	0
O=C(Nc1ccc(Cl)cc1)C(=O)c1c[nH]c2ccccc12	0

Reference: ChEMBL document CHEMBL1641443, “Design, synthesis and biological evaluation of small molecule inhibitors of CD4-gp120 binding based on virtual screening” (Bioorg Med Chem, 2011)
